Source: patent publication US11325893B2, “Hydrofluoroethers and methods of using same” (3M INNOVATIVE PROPERTIES COMPANY, priority 2018, dated 2022)

Tests used:
rats [1] = assay: Acute single dose oral toxicity in rats; format: in vivo; conditions: single oral dose 2000 mg/kg body weight
Experimental: The acute single dose oral toxicity of Comparative Example CE2 was examined in rats dosed at 2000 mg/kg body weight. […] Based on this study, the LD50 of CE2 was estimated to be >2000 mg/kg body weight.

[2] = Log KOW (octanol/water partition coefficient) by HPLC, OECD Method 117; format: physicochemical
Experimental: In these Examples, values of Log KOW (octanol/water partition coefficients) were determined by HPLC using the method described in OECD Method 117.

rats [3] = assay: 4-hour acute inhalation toxicity in rats (LC-50); format: in vivo; conditions: 4 hr inhalation in air, 14-day post-dose monitoring
Experimental: The 4-hour acute inhalation toxicity in rats (LC-50) was measured by dosing animals in air at the amounts shown in Table 2 for 4 hours, followed by 14-day post-dose monitoring. Based on the animal test results and the vapor concentration of the test compound, the LC-50 values were estimated.

Compound	clinical observations during the post dose recovery period (rats [1])	necropsy results (rats [1])	Log KOW [2]	LC-50 (4 hr Inhalation rats) (rats [3])
NOVEC 7700 [Comparative Example CE2]	No adverse clinical observations	normal for all animals	6.6	
COC(F)(C(F)(F)C(F)(F)F)C(F)(C(F)(F)F)C(F)(F)F (centres unmarked) [CE1, NOVEC 7300]			4.3	>430 mg/L
FC(F)(F)C(F)(F)C(F)(F)C1(C(F)(F)F)CCOC1(F)C(F)(C(F)(F)F)C(F)(F)F (centres unmarked) [Example 2, 2-fluoro-3-(1,1,2,2,3,3,3-heptafluoropropyl)-2-[1,2,2,2-tetrafluoro-1-(trifluoromethyl)ethyl]-3-(trifluoromethyl)tetrahydrofuran]			5.8	
FC(F)(F)C(F)(F)C1(F)OCCC1(C(F)(F)F)C(F)(F)F (centres unmarked) [Example 1, 2-fluoro-2-(1,1,2,2,2-pentafluoroethyl)-3,3-bis(trifluoromethyl)tetrahydrofuran]			4.4	>1000 ppmv
